Consider 2 molecules from US4702863A, “Indoaniline and indophenol compounds, a process for their preparation, dyeing compositions containing them and a hair-dyeing process” (L'Oreal, priority 1983, dated 1987).

The test system of series [1] is Salmonella Typhimurium. The series is described as follows: Ames test on Salmonella Typhimurium, with or without an S9 mix activated with Arochlor. The series is classed as cell-based. The settings on record: strains TA 100, TA 98 and TA 1538; with or without an S9 mix (Arochlor activation). From the text: Compounds of formula (I), in hair-dyeing, are substantially innocuous.
A general note: The Ames test uses bacterial strains that need an amino acid and regain growth without it when mutated back.

In series [2] the test system is Salmonella Typhimurium. The settings on record: Selects-Proton Magnetic Resonance, page 1, volume 18, 1981, number 95: 75096 f; cited from earlier work.

Turning to `COC1=CC(=Nc2ccc(N)cc2)C(N)=CC1=O` [[(4'-amino)phenyl]-2-amino-5-methoxy-1,4-benzoquinoneimine], the “mutagenicity in the Ames test” value with Salmonella Typhimurium [1] is given as “highly mutagenic”.

For the molecule `COC1=CC(=Nc2ccc(N)c(C)c2)C(N)=CC1=O` [[(4'-amino-3'-methyl)phenyl]-2-amino-5-methoxy-1,4-benzoquinoneimine], in the series with Salmonella Typhimurium [1], the “mutagenicity in the Ames test” value is given as “highly mutagenic”. The “mutagenic action disclosed in Chemical Abstracts” value with Salmonella Typhimurium [2] is on record as “highly mutagenic”.
